Experiments:
LPC-demyelinated mice = test: Lysolecithin (LPC)-induced focal demyelination of the spinal cord in mice; type: in vivo, mouse
Procedure: 12-week-old C57BL/6 male mice were anaesthetized using isoflurane and a laminectomy was performed. […] of 1% LPC was infused into the dorsal column between T11 and T12 spinal cord at a rate of 0.25 μl/min. The needle was removed after a delay of 5 min to minimize back flow and the lesion closed. […] The mice were euthanized at day 7, 14 and 21 after the laminectomy separately. Spinal cords were dissected for further western blot, histology and ultrastructural analysis. Control animals received an equivalent injection of saline, and tissues were collected according to the same paradigm. […] Lesion sizes were determined by staining of serial sections with eriochrome cyanine staining.
For spinal cord sections, 20 μm coronal sections were incubated in LFB solution in 56° C. overnight and then rinsed sequentially with 95% alcohol and distilled water. The sections were then in 0.1% lithium carbonate solution and followed dehydration with a series of gradated ethanol, cleared with Histoclear and mounted. A set of serial matched sections were imaged and analyzed. Images (5 to 6 sections/animal) were captured under light microscope. The demyelinated areas (lack of LFB staining) were quantified using ImageJ software. For EAE sections, demyelinated areas were measured and represented as a percentage of total area of spinal cord. For sections of LPC model, lesion volumes were calculated by the lesion area from serial sections throughout the entire lesion based on the equation for volume of cylinder (V=lesion area×length of lesion).
Mice were anesthetized with avertin and perfusion with PBS and 4% paraformaldehyde (PFA). Brain or spinal cord were dissected and post-fixed in 4% PFA overnight at 4° C. and equilibrated in 20% sucrose. 20 μm-thick sections were pretreated with Reveal Decloaker Solution (RV 1000M, Biocare Medical) for antigen retrieval according to the manufacturer's instructions. […] For each staining, at least 3 individual animals/group were examined and images were captured with a Leica DFC500 fluorescence microscope. Staining was quantified using Image J software (US National Instisutes of Health, USA). Fluorescence intensity was calculated as percentages of the mean value of the naïve controls.
For ultrastructural analyses of myelination, anesthetized animals were perfused with 2% glutaraldehyde/4% paraformaldehyde in 0.1 M sodium carcodylate buffer, PH7.4 (Electron Microscopy Sciences). Lesioned areas of the LPC or EAE-induced spinal cords from ISP-treated or control animals were dissected and post-fixed in 1% OsO4 for 2 hrs. Coronal sections ([…]) of spinal cord or brain containing corpus callosum were prepared (Leica, Vibratome), dehydrated, stained with saturated uranyl acetate and embedded in a Poly/Bed812 resin (Polysciences Inc.). The 1 μm-thick sections were cut and stained with toluidine blue, and matched areas were selected for EM analysis. For ultrastructure analysis, ultrathin sections (0.1 μm) were cut and visualized using an electron microscope (JEOL100CX) at 80 kV. G-ratios were calculated from at least 50-100 randomly selected myelinated axons by measuring the myelin thickness of the inner and outer diameter of the myelin sheath.

[1] = system: organotypic cerebellar slice cultures; test: LPC-induced demyelination in mouse cerebellar slice cultures; type: cell-based
Description: We carried out the cerebellar slice culture method as described previously (Zhang, H., et al. Central nervous system remyelination in culture—A tool for multiple sclerosis research. Experimental Neurology 230, 138-148 (2011)). Briefly, 300 μm-thick cerebellar slices were cut from P10-12 mouse cerebellum using a Leica vibrating microtome (Leica, VT1000S) and cultured in medium containing 50% basal medium eagle medium, 25% Heat-inactivated horse serum, 25% Hank's solution, 2.5% glucose, 1% glutamine and penicillin-streptomycin. After 4 days in vitro (DIV), 0.5 mg/ml LPC were added for 17-18h to induce demyelination. Slices were then incubated with 2.5 μM ISP for 8 days. For GM6001 experiments, 25 μM GM6001 (Tocris) and/or 2.5 μM ISP or SISP was incubated for 9 days. Remyelination was examined by semi-quantitative Western blot of MBP and immunofluorescence stain of MBP and NeuF200.
Slices were fixed with 4% PFA, delipidated, and washed three times in PBS, blocked in PBS containing 0.1% Triton X-100 and 5% normal goat serum and incubated with anti-MBP (SMI-99P, Covance, 1:300), and anti-NeuF200 (N4142, Sigma, 1:250) antibodies overnight at 4° C. The slices were then washed in PBS and incubated in Alexa Fluor-conjugated secondary antibodies (1:500, invitrogen) for 2h. Slices were mounted in Vectashield mounting medium with DAPI (Vector Laboratories) and analyzed using Leica DFC500 fluorescence microscope.

[2] = system: oligodendrocyte progenitor cells (OPCs); test: Ki-67 proliferation and TUNEL apoptosis of OPCs on aggrecan/laminin; type: cell-based, mouse
Procedure: To assess proliferation, OPCs were plated on 24-well coverslips that were precoated with PLL, 1 μg/mL laminin, and 2 μg/mL aggrecan. OPCs were treated with vehicle, 2.5 μM ISP or SISP immediately upon plating for 2 days at 37° C. Coverslips were fixed and stained using the same method described in the immunocytochemistry section with Ki-67 (550609, BD Pharmingen, 1:500) and O4 (1:10). Coverslips were imaged and counted. To assess apoptosis, OPCs were cultured in the same fashion and incubated with vehicle or 1 μg/mL LPC for 2 hours at 2 days following vehicle, 2.5 μM ISP or SISP incubation. Coverslips were then fixed with PFA and methanol then stained using APO-BrdU TUNEL assay kit (A23210, ThermoFisher) and guidelines with an O/N incubation of the primary antibody at RT. Coverslips were additionally costained with DAPI (D9542, Sigma, 1:10,000) then imaged and counted.

[3] = system: OPC conditioned media protease activity; test: Conditioned media protease activity assay (EnzChek, quenched casein); type: cell-based, mouse; conditions: OPCs treated with 2.5 μM ISP, vs vehicle and SISP
Procedure: Around 1×10^6 OPCs were plated per well on PLL, 1 μg/mL laminin, and 2 μg/mL aggrecan coated 6-well plates and treated with vehicle, 2.5 μM ISP or SISP for 2 days at 37° C. CM was collected, cell-strained, and placed on ice until assayed. ThermoFisher Protease Assay Kit (E66383, EnzChek, ThermoFisher) was used to assay protease activity. 1× of the EnzChek mixture was mixed 1:1 with the CM from each group and incubated at RT O/N with gentle shaking. 3 replicates were performed for each sample. Samples were analyzed using a spectrophotometer at 502/528 nm excitation and emission to assess cleaved and fluorescing casein. Fluorescence units reported have been blanked with EnzChek and cell culture media mixture.

[4] = 14 dpl, given together with ISP, vs LPC+ISP
[5] = 7 dpl, lesion epicenter, ISP started immediately

For `CCCCCCCC/C=C\CCCCCCCC(=O)NO` [OA-Hy, reference compound], the CS56 immunoreactivity (LPC-demyelinated mice; [4]) was “concomitant increase in CS56 immunoreactivity”, the “Olig2+ OPCs in the lesion epicenter” value (LPC-demyelinated mice; [4]) was “decreased accumulation” and the “lesion volume, eriochrome cyanine myelin staining” value (LPC-demyelinated mice; 18 dpl, MMP-2 inhibition without ISP, vs vehicle control) was “increased the lesion volume”. The “effect on ISP-enhanced remyelination (lesion volume)” value (LPC-demyelinated mice; 18 dpl, given together with ISP) was “attenuated the enhanced remyelinating effects of ISP”, the “colocalization of MBP and neurofilament+ axons” value ([1]; 25 μM GM6001 or 100 nM OA-Hy in conjunction with 2.5 μM ISP, 9 days) was “decreased” and the “apoptosis (TUNEL) following LPC treatment” value ([2]; 100 nM OA-Hy with ISP, LPC 1 μg/mL 2 hours, vs LPC-ISP) was “increased apoptosis”. The “TUNEL+ cells/total cells” value ([2]; 100 nM OA-Hy, 2 days in vitro, no LPC) was “did not significantly increase”.

For “GRKKRRQRRRCDMAEHMERLKANDSLKLSQEYESI [ISP]”, the “Olig2+/Ki67+ cells” value (LPC-demyelinated mice; 7 dpl vs vehicle) was “no differences”, the “percentage of Olig2+ OPCs in lesions” value (LPC-demyelinated mice; 7 dpl vs vehicle) was “significantly increased” and the “lesion volume (LFB)” value (LPC-demyelinated mice; 7 dpl, ISP 20 μg/day subcutaneous from 1 day post LPC, vehicle 1.508±0.069) was 1.535±0.058 mm^3. For the same compound, the “CSPG expression (CS56, Cat301)” value (LPC-demyelinated mice; 7 dpl, ISP started immediately upon LPC injection, 7 days) was “significantly reduced”, the “MBP myelin protein expression vs control” value (LPC-demyelinated mice; [5]) was “no change” and the “activated microglia (Iba1) vs control” value (LPC-demyelinated mice; [5]) was “no change”. For the same compound, the “reactive astrocytes (GFAP) vs control” value (LPC-demyelinated mice; [5]) was “no change”, the “MBP expression, western blot” value (LPC-demyelinated mice; 14 dpl) was “increased expression of MBP” and the “CSPGs (CS56 and Cat301) immunostaining” value (LPC-demyelinated mice; 14 dpl vs controls) was “quicker reduction of CSPGs”. The “lesion volume (LFB)” value (LPC-demyelinated mice; 14 dpl, vehicle 1.035±0.06) was 0.613±0.043 mm^3, the “lesion volume (LFB)” value (LPC-demyelinated mice; 21 dpl, vehicle 0.738±0.027) was 0.2±0.041 mm^3 and the “percentage of CC1+ oligodendrocytes in lesions” value (LPC-demyelinated mice; LPC-injected animals, 14 dpl) was “significantly enhanced”. For the same compound, the “MMP-2 expression in the LPC-injected site (immunohistochemistry, western blot)” value (LPC-demyelinated mice; spinal cord, vs LPC vehicle) was “markedly enhanced”, the MBP-neurofilament colocalization ([1]; 2.5 μM ISP for 9 days after LPC, vs control) was “significantly increased” and the “remyelination (MBP and NF200 colocalization)” value ([1]; 2.5 μM ISP, 8 div after LPC, vs vehicle) was “increased remyelination”. For the same compound, the “aggrecan (Cat301) expression vs vehicle” value ([1]; 4 div) was “similar”, the “aggrecan (Cat301) presence” value ([1]; 8 div) was “decrease in aggrecan presence” and the “CSPG expression vs vehicle” value ([1]; 14 div) was “greater CSPG decrease”. For the same compound, the “remyelination (MBP and NF200 colocalization, western blot)” value ([1]; ISP, 14 div after LPC) was “abundant remyelinated axons”, the “protease activity (fluorescence A.U.)” value [3] was “increased protease activity” and the “OPC proliferation (Ki67)” value ([2]; 2.5 μM peptide, 2 div, laminin 1 and aggrecan 2 μg/mL, vs control) was “no significant differences”. The “OPC death (TUNEL) after LPC challenge” value ([2]; LPC 1 μg/mL, 2 hours, 2.5 μM ISP) was “decreased OPC death” and the “percentage of apoptotic cells (TUNEL)” value ([2]; OPCs on low laminin and aggrecan, 2.5 μM ISP) was “decreased the percentage of apoptotic cells”.

Source: patent US20200230205A1, “COMPOSITIONS AND METHODS FOR TREATING MYELIN DISORDERS” (CASE WESTERN RESERVE UNIVERSITY, priority 2017, published 2020)
